Results: patent US20230044787A1, “TRICYCLE DIHYDROIMIDAZOPYRIMIDONE DERIVATIVE, PREPARATION METHOD THEREOF, PHARMACEUTICAL COMPOSITION AND USE THEREOF” (priority 2019, published 2023)

molecular target: T1, Lp-PLA2 (Homo sapiens, UniProt Q13093); assay: Lipoprotein-associated phospholipase A2 (Lp-PLA2) human plasma assay (Thio-PAF assay); type: biochemical; details: Comparison of activity data (I); pooled human plasma, 2-thio-PAF substrate, 30-min pre-incubation
T1 construct: aliquoted and thawed 40 μL of pooled human plasma was previously added; from tissue; host or cells: pooled human plasma
T1 sequence (Q13093 22-441): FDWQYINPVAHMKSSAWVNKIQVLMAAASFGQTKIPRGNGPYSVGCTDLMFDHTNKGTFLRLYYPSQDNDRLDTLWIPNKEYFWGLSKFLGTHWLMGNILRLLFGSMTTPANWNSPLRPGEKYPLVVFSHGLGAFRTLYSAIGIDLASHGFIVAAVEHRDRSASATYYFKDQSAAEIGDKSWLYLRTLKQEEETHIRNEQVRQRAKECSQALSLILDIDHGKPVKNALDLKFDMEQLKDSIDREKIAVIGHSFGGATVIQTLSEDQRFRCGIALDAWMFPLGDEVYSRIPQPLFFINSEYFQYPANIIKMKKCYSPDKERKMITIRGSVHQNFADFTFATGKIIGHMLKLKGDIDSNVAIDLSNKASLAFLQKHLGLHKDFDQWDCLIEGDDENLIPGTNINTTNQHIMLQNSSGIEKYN

| IC50 | SMILES |
| --- | --- |
| 75.3 nM | O=c1nc(OCc2cc(F)c(F)c(F)c2)cc2n1C[C@@H]1COCCN21 [Example 123 in WO2016011930A1, reference compound] |

same assay, conditions: Lp-PLA2 human plasma assay (Thio-PAF), pooled human plasma, 30-min pre-incubation at room temperature

| SMILES | IC50 |
| --- | --- |
| O=c1nc(OCc2ccc(F)c(F)c2)cc2n1CC13CC(CN21)C3 [Example 97, 3-((3,4-difluorobenzyl)oxy)-7,8-dihydro-1H,6H,9H-7,8a-methanopyrrolo[1′,2′:3,4] imidazo[1,2-c]pyrimidin-1-one] | 14.2 nM |
| O=c1nc(OCc2cc(F)c(F)c(F)c2)cc2n1CC13CC(CN21)C3 [Example 98, 3-((3,4,5-trifluorobenzyl)oxy)-7,8-dihydro-1H,6H,9H-7,8a-methanopyrrolo[1′,2′:3,4] imidazo[1,2-c]pyrimidin-1-one] | 30.2 nM |
| N#Cc1cc(COc2cc3n(c(=O)n2)CC24CC(CN32)C4)ccc1F [Example 103] | 6.2 nM |
| O=c1nc(OCc2ccc(Oc3ccnc(C(F)(F)F)c3)cc2)cc2n1CC13CC(CN21)C3 [Example 109, 3-((4-((2-(trifluoromethyl)pyridin-4-yl)oxy)benzyl)oxy)-7,8-dihydro-1H,6H,9H-7,8a-methanopyrrolo[1′,2′:3,4] imidazo[1,2-c]pyrimidin-1-one] | 14 nM |
| O=c1nc(OCCc2ccc(Oc3ccnc(C(F)(F)F)c3)cc2)cc2n1CC13CC(CN21)C3 [Example 111, 3-(4-((2-(trifluoromethyl)pyridin-4-yl)oxy)phenethoxy)-7,8-dihydro-1H,6H,9H-7,8a-methanopyrrolo[1′,2′:3,4] imidazo[1,2-c]pyrimidin-1-one] | 11.4 nM |
| O=c1nc(OCc2ccc(Oc3ccc(C(F)(F)F)nc3)c(F)c2)cc2n1CC13CC(CN21)C3 [Example 117, 3-((3-fluoro-4-((6-(trifluoromethyl)pyridin-3-yl)oxy)benzyl)oxy)-7,8-dihydro-1H,6H,9H-7,8a-methanopyrrolo[1′,2′:3,4] imidazo[1,2-c]pyrimidin-1-one] | 9.1 nM |
| Cc1cc(Oc2ccc(COc3cc4n(c(=O)n3)CC35CC(CN43)C5)cc2F)ccn1 [Example 119, 3-((3-fluoro-4-((2-methyl-pyridin-4-yl)oxy)benzyl)oxy)-7,8-dihydro-1H,6H,9H-7,8a-methanopyrrolo[1′,2′:3,4] imidazo[1,2-c]pyrimidin-1-one] | 8.2 nM |
| Cc1cc(Oc2ccc(COc3cc4n(c(=O)n3)CC35CCC(CC3)N45)cc2F)ccn1 [Example 120, 3-((3-fluoro-4-((2-methyl-pyridin-4-yl)oxy)benzyl)oxy)-7,8-dihydro-1H,6H,9H-6,8a-ethanopyrrolo[1′,2′:3,4] imidazo[1,2-c]pyrimidin-1-one] | 8.7 nM |
| O=c1nc(OCc2ccc(Oc3ccc(C(F)(F)F)nc3)c(F)c2)cc2n1CC13CCC(CC1)N23 [Example 121, 3-((3-fluoro-4-((6-(trifluoromethyl)pyridin-3-yl)oxy)benzyl)oxy)-7,8-dihydro-1H,6H,9H-6,8a-ethanopyrrolo[1′,2′:3,4] imidazo[1,2-c]pyrimidin-1-one] | 8.6 nM |
| O=c1nc(OCc2ccc(Oc3cnc(C(F)(F)F)nc3)c(F)c2)cc2n1CC13CC(CN21)C3 [Example 122, 3-((3-fluoro-4-((2-(trifluoromethyl)pyrimidin-5-yl)oxy)benzyl)oxy)-7,8-dihydro-1H,6H,9H-7,8a-methanopyrrolo[1′,2′:3,4] imidazo[1,2-c]pyrimidin-1-one] | 9.4 nM |

Further lines, results first:

| IC50 | SMILES |
| --- | --- |
| 5.6 nM | O=c1nc(OCCc2cc(F)c(Oc3ccnc(C(F)(F)F)c3)c(F)c2)cc2n1C[C@]13CO[C@H](CN21)C3 [Example 99, (3S,11aR)-7-(3,5-difluoro-4-((2-(trifluoromethyl)pyridin-4-yl)oxy)phenethoxy)-3,4-dihydro-1H,9H,11H-3,11a-methanopyrimido[6′-,1′:2,3] imidazo[5,1-c][1,4]oxazin-9-one] |
| 5.9 nM | O=c1nc(OCCc2ccc(Oc3ccnc(C(F)(F)F)c3)cc2)cc2n1C[C@]13CO[C@H](CN21)C3 [Example 100, (3S,11aR)-7-(4-(2-(trifluoromethyl)pyridin-4-yloxy)phenethoxy)-3,4-dihydro-1H,9H,11H-3,11a-methanopyrimido[6′-,1′:2,3] imidazo[5,1-c][1,4]oxazin-9-one] |
| 15.1 nM | N#Cc1cc(CCOc2cc3n(c(=O)n2)C[C@]24CO[C@H](CN32)C4)ccc1Oc1ccnc(C(F)(F)F)c1 [Example 101, 5-(2-(((3S,11aR)-9-oxo-3,4-dihydro-1H,9H,11H-3,11a-methanopyrimido[6′-,1′:2,3]imidazo[5,1-c][1,4]oxazin-7-yl)oxy)ethyl)-2-((2-(trifluoromethyl)pyridin-4-yl)oxy)benzonitrile] |
| 7.6 nM | N#Cc1c(OCc2cc(F)c(Oc3ccnc(C(F)(F)F)c3)c(F)c2)nc(=O)n2c1N1C[C@@H]3C[C@]1(CO3)C2 [Example 102, (3S,11aR)-7-((3,5-difluoro-4-((2-(trifluoromethyl)pyridin-4-yl)oxy)benzyl)oxy)-6-cyano-3,4-dihydro-1H,9H,11H-3,11a-methanopyrimido[6′,1′:2,3] imidazo[5,1-c][1,4]oxazin-9-one] |
| 8.6 nM | CCc1c(OCc2cc(F)c(Oc3ccnc(C(F)(F)F)c3)c(F)c2)nc(=O)n2c1N1C[C@@H]3C[C@]1(CO3)C2 [Example 104, (3S,11aR)-7-((3,5-difluoro-4-((2-(trifluoromethyl)pyridin-4-yl)oxy)benzyl)oxy)-6-ethyl-3,4-dihydro-1H,9H,11H-3,11a-methanopyrimido[6′,1′:2,3] imidazo[5,1-c][1,4]oxazin-9-one] |
| 10.8 nM | O=c1nc(OCc2ccc(Oc3ccnc(C(F)(F)F)c3)cc2F)cc2n1CC13CC(CN21)C3 [Example 105, 3-((2-fluoro-4-((2-(trifluoromethyl)pyridin-4-yl)oxy)benzyl)oxy)-7,8-dihydro-1H,6H,9H-7,8a-methanopyrrolo[1′,2′:3,4] imidazo[1,2-c]pyrimidin-1-one] |
| 1 nM | COc1c(OCc2cc(F)c(Oc3ccnc(C(F)(F)F)c3)c(F)c2)nc(=O)n2c1N1C[C@@H]3C[C@]1(CO3)C2 [Example 106, (3S,11aR)-7-((3,5-difluoro-4-((2-(trifluoromethyl)pyridin-4-yl)oxy)benzyl)oxy)-6-methoxy-3,4-dihydro-1H,9H,11H-3,11a-methanopyrimido[6′,1′:2,3] imidazo[5,1-c][1,4]oxazin-9-one] |
| 9.5 nM | CC(C)c1c(OCc2cc(F)c(Oc3ccnc(C(F)(F)F)c3)c(F)c2)nc(=O)n2c1N1C[C@@H]3C[C@]1(CO3)C2 [Example 107, (3S,11aR)-7-((3,5-difluoro-4-((2-(trifluoromethyl)pyridin-4-yl)oxy)benzyl)oxy)-6-isopropyl-3,4-dihydro-1H,9H,11H-3,11a-methanopyrimido[6′,1′:2,3] imidazo[5,1-c][1,4]oxazin-9-one] |
| 5 nM | Cc1c(OCc2ccc(Oc3ccnc(C(F)(F)F)c3)cc2)nc(=O)n2c1N1C[C@@H]3C[C@]1(CO3)C2 [Example 108, (3S,11aR)-7-((4-((2-(trifluoromethyl)pyridin-4-yl)oxy)benzyl)oxy)-6-methyl-3,4-dihydro-1H,9H,11H-3,11a-methanopyrimido[6′,1′:2,3] imidazo[5,1-c][1,4]oxazin-9-one] |
| 5.3 nM | N#Cc1cc(COc2cc3n(c(=O)n2)C[C@@]24CO[C@@H](CN32)C4)ccc1Oc1ccnc(C(F)(F)F)c1 [Example 110, 5-((((3R,11aS)-9-oxo-3,4-dihydro-1H,9H,11H-3,11a-methanopyrimido[6′,1′:2,3]imidazo[5,1-c][1,4]oxazin-7-yl)oxy)methyl)-2-((2-(trifluoromethyl)pyridin-4-yl)oxy)benzonitrile] |
| 5.1 nM | O=c1nc(OCc2cc(F)c(Oc3ccnc(C(F)(F)F)c3)c(F)c2)cc2n1CC13CCC(COC1)N23 (stereo not drawn) [Example 112, 7-((3,5-difluoro-4-((2-(trifluoromethyl)pyridin-4-yl)oxy)benzyl)oxy)-3,4-dihydro-1H,9H,11H-4,11a-ethanopyrimido[6′,1′:2,3] imidazo[5,1-c][1,4]oxazin-9-one] |
| 5.7 nM | O=c1nc(OCc2ccc(Oc3ccnc(C(F)(F)F)c3)c(F)c2)cc2n1CC13CC(CN21)C3 [Example 113, 3-((3-fluoro-4-((2-(trifluoromethyl)pyridin-4-yl)oxy)benzyl)oxy)-7,8-dihydro-1H,6H,9H-7,8a-methanopyrrolo[1′,2′:3,4] imidazo[1,2-c]pyrimidin-1-one] |
| 5.7 nM | COc1c(OCc2cc(F)c(F)c(F)c2)nc(=O)n2c1N1C[C@@H]3C[C@]1(CO3)C2 [Example 114, (3S,11aR)-7-((3,4,5-trifluorobenzyl)oxy)-6-methoxy-3,4-dihydro-1H,9H,11H-3,11a-methanopyrimido[6′,1′:2,3] imidazo[5,1-c][1,4]oxazin-9-one] |
| 5.2 nM | COc1c(OCc2ccc(F)c(F)c2)nc(=O)n2c1N1C[C@@H]3C[C@]1(CO3)C2 [Example 115, (3S,11aR)-7-((3,4-difluorobenzyl)oxy)-6-methoxy-3,4-dihydro-1H,9H,11H-3,11a-methanopyrimido[6′,1′:2,3] imidazo[5,1-c][1,4]oxazin-9-one] |
| 6 nM | O=c1nc(OCc2ccc(Oc3ccnc(C(F)(F)F)c3)c(F)c2)cc2n1CC13CCC(CC1)N23 [Example 118, 3-((3-fluoro-4-((2-(trifluoromethyl)pyridin-4-yl)oxy)benzyl)oxy)-7,8-dihydro-1H,6H,9H-6,8a-ethanopyrrolo[1′,2′:3,4] imidazo[1,2-c]pyrimidin-1-one] |
| 4.4 nM | O=c1nc(OCc2cc(F)c(Oc3ccnc(C(F)(F)F)c3)c(F)c2)cc2n1C[C@]13CC[C@H](CN21)C3 [Example 123] |
